Data: paper PMC5407626 (PLoS ONE, 2017)
Values joined by “and” are separate entries in the source; they are usually repeats but may differ in a detail not shown here. Equal values may be shown once.

Assays:
DES1 = target: T1, DES1 (Homo sapiens, UniProt O15121); assay: DES1 activity in ARPE-19 cells (dihydroceramide/ceramide ratio, LC/MS); type: cell-based; parameters: DHCER (C18) / CER (C18) / DHCER (C16) / CER (C16): unit not given here; settings: 10 μM, 24 h; for increase in dihydroceramide/ceramide ratio, C18 ceramide: compared to DMSO control; for MEAN RATIO (DH / C) C16 / MEAN RATIO C18 DHCER/CER: mean of 3; for MEAN RATIO (DH / C) C16: DMSO 0.08; for MEAN RATIO C18 DHCER/CER: DMSO 0.289
T1 construct: endogenous in cells; host or cells: ARPE-19
T1 sequence (O15121 1-323): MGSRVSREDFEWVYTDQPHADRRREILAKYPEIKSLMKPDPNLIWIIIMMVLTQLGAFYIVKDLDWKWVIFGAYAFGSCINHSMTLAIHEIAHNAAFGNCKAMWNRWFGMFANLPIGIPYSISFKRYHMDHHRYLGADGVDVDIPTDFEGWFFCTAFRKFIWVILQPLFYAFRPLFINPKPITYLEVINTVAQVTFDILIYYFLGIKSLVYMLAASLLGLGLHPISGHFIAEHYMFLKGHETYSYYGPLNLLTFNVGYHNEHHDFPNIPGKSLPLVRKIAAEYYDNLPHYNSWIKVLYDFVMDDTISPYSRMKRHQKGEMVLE
Procedure: ARPE-19 cells were seeded onto tissue culture plates at a density of 2x10^5 cells/ml in complete medium and allowed to grow overnight. Cells were then treated with retinoids (10 μM) or vehicle (control) for 24 hours in a 37°C, 5% CO2 incubator at which time cells were harvested and total lipids were extracted into methyl-tert-butyl ether (MTBE) using the method of Matyash et al.. Extracted lipids normalized to total protein as described were subjected to liquid chromatography mass spectrometry (LC/MS) to determine the sphingolipid content in treated ARPE-19 cells. LC/MS analysis was performed using a Waters 2695 LC system coupled to an AB Sciex API2000 triple quadrupole mass spectrometer. […] The mass spectral analysis of the sphingolipid species was performed using electrospray ionization in the positive ion mode with multiple reaction monitoring (MRM). The following compound-specific transitions for precursor and characteristic product ions were used: 538 → 264 for C16 Ceramide (Cer); 540 → 266 for C16 dihydroceramide (DHCer); 566 →264 for C18 Cer; and 568 → 266 for C18 DHCer. Data was acquired and analyzed using Analyst software v 1.5 (AB Sciex).
The ratio of substrate to product for C16 and C18 ceramides (dihydroceramide/ceramide) in the presence of DMSO or inhibitors was determined by LC/MS.
Lipids were extracted from one 100 mm Petri dish for each biological replicate and subjected to mass spectrometry analysis. Data plotted as means±standard deviation; n = 3.

SCD1 = SCD1 protein expression in ARPE-19 cells (Western blot densitometry); type: cell-based, human; settings: 10 μM
Procedure: Compounds were dissolved in dimethyl sulfoxide (DMSO) and then added to the cell culture medium. Cells designated as control received an equal amount of dimethyl sulfoxide. After 16 h, cells were incubated with 50 μM palmitic acid triply deuterated (D3) on the methyl group (Cambridge Isotope Laboratories, Tewksbury, MA) for an additional 5 h before harvesting.
Samples were resuspended in 20 μl 4X reducing NuPAGE LDS sample buffer (Invitrogen). For western blot analysis, equal amounts of total protein (50 μg) from cell extracts were subjected to SDS-polyacrylamide gel electrophoresis using 4–12% NUPAGE Bis-Tris gels and then transferred to a nitrocellulose membrane using iBlot® Dry Blotting System (Invitrogen, Carlsbad, CA). After blocking in 5% non-fat milk in Tris-buffered saline (TBS) containing 0.01% Tween 20 for 1 h, the membranes were incubated overnight at 4°C with mouse monoclonal anti-SCD1 antibody (1:200; Kamiya Biomedical Company). Peroxidase-conjugated goat anti-mouse IgG antibody was used as secondary antibody. Immunocomplexes were visualized by a chemiluminescence method using the ECL Prime western blotting Detection Kit (GE Healthcare Life Sciences). The blots were then stripped and reprobed with mouse monoclonal anti-α-tubulin antibody.
Cell lysates were analyzed by Western blotting using mouse monoclonal antibody against SCD1 (upper panel) in comparison with immunoreactivity to α-tubulin which was employed as a loading control (lower panel) and densitometry for each lane was performed and analyzed by ImageJ to provide the SCD1/α-tubulin ratio for each lane. […] Free fatty acids present in lipid extracts were analyzed by LC/MS and SCD1 activity, measured by the conversion of methyl-D3 palmitic acid to methyl-D3 palmitoleic acid, was determined. […] Lipids were extracted from two 100 mm Petri dishes and combined for mass spectrometry analysis. Data plotted as means ± standard deviation; n = 3. […] They are given here as printed results in cells, but it is uncertain whether they fall under the exclusion for gels and blots. / Panel A: the Control lane (1.00) is left out because it is not a substance.

RARβ = target: T2, RARβ (Homo sapiens, UniProt P10826); assay: GeneBLAzer RAR-beta DA assay, antagonist mode (competition with at-RA); type: cell-based; settings: for competition with all-trans-retinoic acid: at-RA 0.5–1.5 nM, tested 10^−5 to 10^−9 M
T2 sequence (P10826 183-417 limits assumed): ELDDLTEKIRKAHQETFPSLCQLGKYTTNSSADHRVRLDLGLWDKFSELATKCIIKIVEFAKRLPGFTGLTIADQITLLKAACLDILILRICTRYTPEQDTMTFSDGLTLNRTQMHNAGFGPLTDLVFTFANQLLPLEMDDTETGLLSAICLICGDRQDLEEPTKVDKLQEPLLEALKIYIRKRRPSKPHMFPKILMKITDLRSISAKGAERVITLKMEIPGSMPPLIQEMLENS
Procedure: The potency of agonists and antagonists was measured by GeneBLAzer RAR-beta DA Assay Kit (ThermoFisher Scientific) according to the manufacturer’s recommendations.
The phenylretinamides may have the ability to modulate the expression of proteins and induce cell apoptosis via RAR-dependent and -independent pathways. […] Additionally, apoptosis of neuroblastoma cell lines was blocked by two retinoic acid receptor (RAR)-β/γ-specific antagonists, but not by a RARα-specific antagonist. […] However, in this case the specific RARα-specific antagonist AGN194301 could block fenretinde-induced apoptosis. […] Human retina-derived cells in culture show differences in expression of RAR receptors. […] Clonetics HRPE primary human cells specifically express only RARβ [50].
Fluorescence was measured at excitation (ex) 409 nm/emission (em) 460 and at ex 409nm/em 530 nm and the ratio was determined and plotted against a range of concentrations (10^−5 to 10^−9 M) of the tested compounds.

SMILES	effect on DES1 activity / substrate accumulation (DES1)	effect on SCD1 expression (SCD1)	increase in dihydroceramide/ceramide ratio, C18 ceramide (DES1)	MEAN RATIO (DH / C) C16 (DES1)	CER (C16) (DES1; single samples)	CER (C18) (DES1; single samples)	Ceramide Content, C16 CER (DES1; single samples)	Ceramide Content, C18 CER (DES1; single samples)	Ceramide Content, C18 DHCER (DES1; single samples)	DHCER (C18) (DES1; single samples)	Mass Injected, C16 CER (DES1; single samples)	Mass Injected, C18 CER (DES1; single samples)	Mass Injected, C18 DHCER (DES1; single samples)	RATIO C18 DHCER/CER (DES1; single samples)	MEAN RATIO C18 DHCER/CER (DES1)	competition with all-trans-retinoic acid (RARβ)	further results
CC1=C(/C=C/C(C)=C/C=C/C(C)=C/C(=O)Nc2ccc(O)cc2)C(C)(C)CCC1 [fenretinide, N-[4-hydroxyphenyl]retinamide]	inhibit DES1 activity	inhibitory effect on SCD1 expression															CER (C16) (DES1; single samples, listed as 4HPR): 17.20 and 18.50 and 17.10; CER (C18) (DES1; single samples, listed as 4HPR): 12.80 and 11.80 and 11.95; Ceramide Content, C16 CER (DES1; single samples, listed as 4HPR): 17.20 ng and 18.50 ng and 17.10 ng; Ceramide Content, C16 DHCER (DES1; single samples, listed as 4HPR): 6.15 ng and 4.01 ng and 5.75 ng; Ceramide Content, C18 CER (DES1; single samples, listed as 4HPR): 12.80 ng and 11.80 ng and 11.95 ng; Ceramide Content, C18 DHCER (DES1; single samples, listed as 4HPR): 9.30 ng and 7.50 ng and 7.25 ng; DHCER (C16) (DES1; single samples, listed as 4HPR): 5.75 and 6.15 and 4.01; DHCER (C18) (DES1; single samples, listed as 4HPR): 9.30 and 7.50 and 7.25; Mass Injected, C16 CER (DES1; single samples, listed as 4HPR): 3.44 ng and 3.70 ng and 3.42 ng; Mass Injected, C16 DHCER (DES1; single samples, listed as 4HPR): 1.230 ng and 0.801 ng and 1.150 ng; Mass Injected, C18 CER (DES1; single samples, listed as 4HPR): 2.56 ng and 2.36 ng and 2.39 ng; Mass Injected, C18 DHCER (DES1; single samples, listed as 4HPR): 1.86 ng and 1.50 ng and 1.45 ng; IC50 (RARβ; competition with 1 nM at-RA): 10 µM
CC1=C(/C=C/C(C)=C/C=C/C(C)=C/C(=O)Nc2ccc(O)cc2)C(C)(C)CCC1=O [3-keto-HPR, 4-oxo-N-(4-hydroxyphenyl)retinamide]	inhibit DES1 activity	more efficiently inhibits SCD1 expression	~ 3 fold	0.66	25.15 and 24.70 and 25.05	14.35 and 14.50 and 14.55	25.15 ng and 24.70 ng and 25.05 ng	14.35 ng and 14.50 ng and 14.55 ng	9.70 ng and 11.25 ng	9.70 and 11.25	5.03 ng and 4.94 ng and 5.01 ng	2.87 ng and 2.90 ng and 2.91 ng	1.94 ng and 2.25 ng	0.676 and 0.776 and 0.667			MEAN RATIO C18 DHCER/CER (DES1; listed as 3-KETO-HPR): 0.7062; MEAN RATIO C18 DHCER/CER (DES1; listed as KETO): 0.706; Ceramide Content, C16 DHCER (DES1; single samples): 19.55 ng and 15.70 ng and 14.55 ng; DHCER (C16) (DES1; single samples): 19.55 and 15.70 and 14.55; Mass Injected, C16 DHCER (DES1; single samples): 3.910 ng and 3.140 ng and 2.910 ng; RATIO (DH / C) C16 (DES1; single samples): 0.78 and 0.64 and 0.58
O=C(O)c1ccccc1NC(=O)N1CCC(c2ccccc2C(F)(F)F)CC1 [A1120]	do not lead to overaccumulation of substrate	do not affect	~ 2 fold	0.07	18.30 and 24.15 and 18.55	11.60 and 16.65 and 11.05	18.30 ng and 24.15 ng and 18.55 ng	11.60 ng and 16.65 ng and 11.05 ng			3.66 ng and 4.83 ng and 3.71 ng	2.32 ng and 3.33 ng and 2.21 ng		0.136 and 0.202 and 0.120	0.153 and 0.1528	cannot compete	
COc1ccc(NC(=O)/C=C(C)/C=C/C=C(C)/C=C/C2=C(C)CCCC2(C)C)cc1 [MPR, N-[4-methoxyphenyl]retinamide]	do not lead to overaccumulation of substrate	do not affect		0.08	20.40 and 20.30 and 18.55	14.65 and 15.00 and 13.65	20.40 ng and 20.30 ng and 18.55 ng	14.65 ng and 15.00 ng and 13.65 ng	5.30 ng and 4.97 ng and 4.35 ng	5.30 and 4.97	4.08 ng and 4.06 ng and 3.71 ng	2.93 ng and 3.00 ng and 2.73 ng	1.06 ng and 0.99 ng and 0.87 ng	0.362 and 0.331 and 0.319	0.338 and 0.3375	cannot compete	
